Test results reported in patent US4272437A, “Antibacterial agents, and 4-thio azetidinone intermediates” (priority 1979, dated 1981).
Values after ≈ are worked out from the molar mass of the structure shown. Like-named read-outs stand apart in the source and are kept apart here.

Experiments:
Ent. cloacae A-9659 = assay: MIC, tube dilution, Enterobacter cloacae A9659; assay type: cell-based; conditions: Enterobacter cloacae, A9659, Enterobacter cloacae A9659; overnight 37° C.; read-out: Minimum Inhibitory Concentration (M.I.C.)
Excerpt: (§1) Representative compounds of the present invention were subjected to in vitro antibiotic screening against a variety of microorganisms.

[1] = system: Klebsiella species A20468; assay: MIC, tube dilution, Klebsiella species A20468; assay type: cell-based; conditions: Klebsiella species (K. pneumoniae) A20468; overnight 37° C.; read-out: Minimum Inhibitory Concentration (M.I.C.)
Excerpt: as §1

Ent. cloacae A-9656 = assay: MIC, tube dilution, Enterobacter cloacae A9656; assay type: cell-based; conditions: overnight 37° C., read-out: Minimum Inhibitory Concentration (M.I.C.)
Excerpt: as §1

K. pneumoniae A-15130 = assay: MIC, tube dilution, Klebsiella pneumoniae A15130; assay type: cell-based; conditions: Klebsiella pneumoniae, A15130, K. pneumoniae A15130; overnight 37° C.; read-out: Minimum Inhibitory Concentration (M.I.C.)
Excerpt: as §1

[2] = system: Staph. aureus (Pen-Res) A-9606; assay: MIC, tube dilution, Staphylococcus aureus A9606 (Pen-Res); assay type: cell-based; conditions: Staphylococcus aureus, Staph. aureus A9606 (Pen-Res); overnight 37° C.; read-out: Minimum Inhibitory Concentration (M.I.C.)
Excerpt: as §1

Pr. morganii A-15153 = assay: MIC, tube dilution, Proteus morganii A15153; assay type: cell-based; conditions: Morganella morganii, A15153, Proteus morganii A15153; overnight 37° C.; read-out: Minimum Inhibitory Concentration (M.I.C.)
Excerpt: as §1

Pr. mirabilis A-9900 = assay: MIC, tube dilution, Proteus mirabilis A9900; assay type: cell-based; conditions: Proteus mirabilis, A9900, Proteus mirabilis A9900; overnight 37° C.; read-out: Minimum Inhibitory Concentration (M.I.C.)
Excerpt: as §1

[3] = system: Staph. aureus A-9537 and 50% serum; assay: MIC, tube dilution, Staph. aureus A9537 + 50% serum; assay type: cell-based, Staphylococcus aureus; conditions: Staphylococcus aureus, overnight 37° C., read-out: Minimum Inhibitory Concentration (M.I.C.)
Excerpt: as §1

[4] = system: Staph. aureus (Meth-Res) A-15097; assay: MIC, tube dilution, Staphylococcus aureus A15097 (Meth-Res); assay type: cell-based; conditions: Staphylococcus aureus, Staph. aureus A15097 (Meth-Res); overnight 37° C.; read-out: Minimum Inhibitory Concentration (M.I.C.)
Excerpt: as §1

Staph. aureus A-9537 = assay: MIC, tube dilution, Staphylococcus aureus A9537; assay type: cell-based; conditions: Staphylococcus aureus, A9537, Staph. aureus A9537; overnight 37° C., Nutrient Broth; read-out: Minimum Inhibitory Concentration (M.I.C.)
Excerpt: as §1

Str. pyogenes A-9604 = assay: MIC, tube dilution, Streptococcus pyogenes A9604; assay type: cell-based; conditions: Streptococcus pyogenes, A9604, Str. pyogenes A9604; overnight 37° C., Nutrient Broth; read-out: Minimum Inhibitory Concentration (M.I.C.)
Excerpt: as §1

Str. faecalis A-20688 = assay: MIC, tube dilution, Streptococcus faecalis A20688; assay type: cell-based; conditions: Enterococcus faecalis, A20688, Str. faecalis A20688; overnight 37° C.; read-out: Minimum Inhibitory Concentration (M.I.C.)
Excerpt: as §1

Ps. aeruginosa A-21213 = assay: MIC, tube dilution, Pseudomonas aeruginosa A21213; assay type: cell-based; conditions: overnight 37° C., read-out: Minimum Inhibitory Concentration (M.I.C.)
Excerpt: as §1

Ser. marcescens A-20019 = assay: MIC, tube dilution, Serratia marcescens A20019; assay type: cell-based; conditions: Serratia marcescens, A20019, Serratia marcescens A20019; overnight 37° C.; read-out: Minimum Inhibitory Concentration (M.I.C.)
Excerpt: as §1

Ps. aeruginosa A-9843A = assay: MIC, tube dilution, Pseudomonas aeruginosa A9843A; assay type: cell-based; conditions: Pseudomonas aeruginosa, A9843A, read-out: Minimum Inhibitory Concentration (M.I.C.), Pseudomonas aeruginosa A9843A; overnight 37° C.
Excerpt: as §1

E. coli A-15119 = assay: MIC, tube dilution, Escherichia coli A15119; assay type: cell-based; conditions: Escherichia coli, A15119, E. coli A15119; overnight 37° C.; read-out: Minimum Inhibitory Concentration (M.I.C.)
Excerpt: as §1

Proteus vulgaris A21559 = assay: MIC, tube dilution, Proteus vulgaris A21559; assay type: cell-based; conditions: Proteus vulgaris
Excerpt: as §1

E. coli A-20341-1 = assay: MIC, tube dilution, Escherichia coli A20341-1; assay type: cell-based
Excerpt: as §1

Str. pneumoniae A-9585 = assay: MIC, tube dilution, Streptococcus pneumoniae A9585; assay type: cell-based; conditions: Streptococcus pneumoniae, A9585, Str. pneumoniae A9585; overnight 37° C., Nutrient Broth; read-out: Minimum Inhibitory Concentration (M.I.C.)
Excerpt: as §1

Proteus rettgeri A21203 = assay: MIC, tube dilution, Proteus rettgeri A21203; assay type: cell-based; conditions: Providencia rettgeri, overnight 37° C., read-out: Minimum Inhibitory Concentration (M.I.C.)
Excerpt: as §1

[5] = Escherichia coli, A203411; E. coli A20341-1; overnight 37° C.; read-out: Minimum Inhibitory Concentration (M.I.C.)
[6] = Enterobacter cloacae, A9656, Enterobacter cloacae A9656
[7] = A21559, Proteus vulgaris A21559, overnight 37° C., read-out: Minimum Inhibitory Concentration (M.I.C.)
[8] = A21203, Proteus rettgeri A21203
[9] = Pseudomonas aeruginosa, A21213, Pseudomonas aeruginosa A21213
[10] = Escherichia coli, A203411, E. coli A20341-1; overnight 37° C.; read-out: Minimum Inhibitory Concentration (M.I.C.)

Row | Structure (SMILES) | MIC (Ent. cloacae A-9659) | MIC [1] | MIC (K. pneumoniae A-15130) | MIC [2] | MIC (Pr. morganii A-15153) | MIC (Pr. mirabilis A-9900) | MIC [3] | MIC [4] | MIC (Staph. aureus A-9537) | MIC (Str. pyogenes A-9604) | MIC (Str. faecalis A-20688) | MIC (Ser. marcescens A-20019) | MIC (Ps. aeruginosa A-9843A) | MIC (E. coli A-15119) | MIC (Str. pneumoniae A-9585) | MIC (Ent. cloacae A-9656; [6]) | MIC (Proteus vulgaris A21559; [7]) | MIC (Proteus rettgeri A21203; [8]) | MIC (Ps. aeruginosa A-21213; [9]) | MIC (E. coli A-20341-1; [10]) | also measured
1 | CC(N)C1=C(C(=O)O)N2C(=O)CC2S1 (centres unmarked) [Example 72, 2-(1'-Aminoethyl)-penem-3-carboxylic Acid] | > 125 µg/mL | > 125 µg/mL | > 125 µg/mL | 32 µg/mL (≈ 149 µM) | > 125 µg/mL | 125 µg/mL (≈ 583 µM) | 63 µg/mL | 63 µg/mL (≈ 294 µM) | 4 µg/mL (≈ 18.7 µM) | 2 µg/mL (≈ 9.34 µM) | > 125 µg/mL | > 125 µg/mL | > 125 µg/mL | 125 µg/mL (≈ 583 µM) | 1 µg/mL (≈ 4.67 µM) | – | – | – | – | – | MIC (Ent. cloacae A-9656; Enterobacter cloacae A9656): > 125 µg/mL; MIC (Ps. aeruginosa A-21213; Pseudomonas aeruginosa A21213): > 125 µg/mL; MIC (Proteus vulgaris A21559; A21559, read-out: Minimum Inhibitory Concentration (M.I.C.)): 125 µg/mL (≈ 583 µM); MIC (E. coli A-20341-1; [5]): > 125 µg/mL; MIC (Proteus rettgeri A21203; Proteus rettgeri A21203): 125 µg/mL (≈ 583 µM)
2 | O=C(O)C1=C(Cn2cnnn2)SC2CC(=O)N12 (centres unmarked) [Example 76, Sodium 2-(1H-Tetrazolemethyl)-penem-3-carboxylate] | 16 µg/mL | > 125 µg/mL | 63 µg/mL | 4 µg/mL | 16 µg/mL | 8 µg/mL | > 63 µg/mL | 8 µg/mL | 1 µg/mL | 0.5 µg/mL | 125 µg/mL | 16 µg/mL | > 125 µg/mL | 4 µg/mL | 0.03 µg/mL | 16 µg/mL | 8 µg/mL | 8 µg/mL | – | – | MIC (Ps. aeruginosa A-21213; Pseudomonas aeruginosa A21213): > 125 µg/mL; MIC (E. coli A-20341-1; [5]): > 125 µg/mL
3 | Cc1cc(C)n(CC2=C(C(=O)O)N3C(=O)CC3S2)n1 (centres unmarked) [Example 77, Sodium 2-(3,5-Dimethyl-1H-pyrazolemethyl)-penem-3-carboxylate] | > 125 µg/mL | > 125 µg/mL | > 125 µg/mL | 4 µg/mL | 16 µg/mL | 2 µg/mL | > 63 µg/mL | 16 µg/mL | 0.13 µg/mL | 0.5 µg/mL | 125 µg/mL | > 125 µg/mL | > 125 µg/mL | 4 µg/mL | 0.03 µg/mL | – | 63 µg/mL | – | – | – | MIC (Ent. cloacae A-9656; Enterobacter cloacae A9656): 125 µg/mL; MIC (Ps. aeruginosa A-21213; Pseudomonas aeruginosa A21213): > 125 µg/mL; MIC (E. coli A-20341-1; [5]): > 125 µg/mL; MIC (Proteus rettgeri A21203; Proteus rettgeri A21203): > 125 µg/mL
4 | NCC(=O)OCC1=C(C(=O)O)N2C(=O)CC2S1 (centres unmarked) [Example 81, 2-Aminoacetoxymethyl-penem-3-carboxylic Acid] | 8 µg/mL (≈ 31 µM) | > 63 µg/mL | 8 µg/mL (≈ 31 µM) | 2 µg/mL (≈ 7.74 µM) | 8 µg/mL (≈ 31 µM) | 4 µg/mL (≈ 15.5 µM) | > 32 µg/mL | 8 µg/mL (≈ 31 µM) | 32 µg/mL (≈ 124 µM) | 16 µg/mL (≈ 62 µM) | 63 µg/mL (≈ 244 µM) | 8 µg/mL (≈ 31 µM) | 63 µg/mL (≈ 244 µM) | 2 µg/mL (≈ 7.74 µM) | 2 µg/mL (≈ 7.74 µM) | 8 µg/mL (≈ 31 µM) | 16 µg/mL (≈ 62 µM) | 8 µg/mL (≈ 31 µM) | > 63 µg/mL | 32 µg/mL (≈ 124 µM) | –
5 | NCc1ccc(CC2=C(C(=O)O)N3C(=O)CC3S2)cc1 (centres unmarked) [Example 85, 2-(p-Aminomethylbenzyl)penem-3-carboxylic Acid] | 8 µg/mL (≈ 27.6 µM) | > 63 µg/mL | 32 µg/mL (≈ 110 µM) | 16 µg/mL (≈ 55.1 µM) | 4 µg/mL (≈ 13.8 µM) | 4 µg/mL (≈ 13.8 µM) | 1 µg/mL | > 63 µg/mL | 0.06 µg/mL (≈ 0.207 µM) | 0.06 µg/mL (≈ 0.207 µM) | 16 µg/mL (≈ 55.1 µM) | 4 µg/mL (≈ 13.8 µM) | 8 µg/mL (≈ 27.6 µM) | 4 µg/mL (≈ 13.8 µM) | 0.06 µg/mL (≈ 0.207 µM) | 8 µg/mL (≈ 27.6 µM) | > 63 µg/mL | 4 µg/mL (≈ 13.8 µM) | 63 µg/mL (≈ 217 µM) | 63 µg/mL (≈ 217 µM) | –
6 | NCCSCC1=C(C(=O)O)N2C(=O)CC2S1 (centres unmarked) [Example 88, 2-(2-Aminoethylthiomethyl)penem-3-carboxylic Acid] | 32 µg/mL (≈ 123 µM) | > 63 µg/mL | 8 µg/mL (≈ 30.7 µM) | 16 µg/mL (≈ 61.5 µM) | 8 µg/mL (≈ 30.7 µM) | 4 µg/mL (≈ 15.4 µM) | 0.5 µg/mL | 16 µg/mL (≈ 61.5 µM) | 0.13 µg/mL (≈ 0.499 µM) | 0.13 µg/mL (≈ 0.499 µM) | 63 µg/mL (≈ 242 µM) | 8 µg/mL (≈ 30.7 µM) | 63 µg/mL (≈ 242 µM) | 4 µg/mL (≈ 15.4 µM) | 0.13 µg/mL (≈ 0.499 µM) | 32 µg/mL (≈ 123 µM) | 16 µg/mL (≈ 61.5 µM) | 8 µg/mL (≈ 30.7 µM) | > 63 µg/mL | 16 µg/mL (≈ 61.5 µM) | –
7 | CCC(N)CC1=C(C(=O)O)N2C(=O)CC2S1 (centres unmarked) [Example 100, 2-(2'-Aminobutyl)-penem-3-carboxylic Acid] | 16 µg/mL (≈ 66 µM) | > 32 µg/mL | 16 µg/mL (≈ 66 µM) | > 32 µg/mL | 16 µg/mL (≈ 66 µM) | 8 µg/mL (≈ 33 µM) | 8 µg/mL | > 32 µg/mL | 0.25 µg/mL (≈ 1.03 µM) | 0.25 µg/mL (≈ 1.03 µM) | > 32 µg/mL | 8 µg/mL (≈ 33 µM) | > 32 µg/mL | 4 µg/mL (≈ 16.5 µM) | 0.25 µg/mL (≈ 1.03 µM) | 8 µg/mL (≈ 33 µM) | 16 µg/mL (≈ 66 µM) | 8 µg/mL (≈ 33 µM) | > 32 µg/mL | 32 µg/mL (≈ 132 µM) | –
